From patent publication US20190350964A1, “ANTI-CANCER COMPOUNDS AND USES THEREOF” (NATIONAL UNIVERSITY OF SINGAPORE, priority 2016, published 2019)

Columns and labels:
[1] = biological target: T1, Isoform 2 of Ferrochelatase, mitochondrial (Homo sapiens, UniProt P22830); experiment: MS-CETSA in normal BJ cell lysates; format: binding; conditions: Uniprot P22830-2, lysate, 100 μM compound
T1 construct: After collecting data covering >8,000 proteins in lysates of normal BJ cells; endogenous in cells; host or cells: normal BJ cells (hTert-immortalised human foreskin fibroblasts), lysate
Procedure: (§1) Target identification was performed by cellular thermal shift assay (CETSA) coupled with quantitative mass spectrometry. In brief, normal BJ cells were lysed by combination of freeze/thaw and mechanical shearing with needle in buffer [50 mM HEPES (pH 7.5), 5 mM β-glycerophosphate, 0.1 mM Sodium Vanadate, 10 mM MgCl2, 1 mM TCEP and 1× Protease inhibitor Cocktail]. The cell debris was removed by centrifugation at 20,000 g for 20 min at 4° C. […] Each lysate was divided into 10 aliquots for heat treatment at the respective temperatures for 3 min in a 96-well thermocycler, followed by 3 min at 4° C. The lysate was centrifuged at 20,000 g for 20 min at 4° C. and the supernatant was transferred into microtubes for MS sample preparation.
(§2) After lysis, at least 100 μg of the protein (measured with a BCA assay) was subjected to reduction, denaturation and alkylation. Samples were subsequently incubated with sequencing grade LysC (Wako) and trypsin (Promega) for digestion overnight at 37° C. The digested samples were dried using a centrifugal vacuum evaporator, solubilized in 100 mM TEAB. […]
(§3) Proteins for which a low temperature plateau was not present were deleted using a cut off >0.85 for the average reading of the first three temperature points (in our experience proteins melting already at −37° C. are more prone to give false positives in a shift analysis).

NCC59 = experiment: MTT cytotoxicity test (GI50); format: cell-based; conditions: Homo sapiens; NCC59, cancer, gastric; MTT 72 h
Liprin-beta-1 = biological target: T2, Liprin-beta-1 (Homo sapiens, UniProt Q86W92); experiment: MS-CETSA in normal BJ cell lysates; format: binding; conditions: lysate, 100 μM compound
T2 construct: After collecting data covering >8,000 proteins in lysates of normal BJ cells; endogenous in cells; host or cells: normal BJ cells, lysate
Procedure: as §1, §2, §3

HeLa = experiment: MTT cytotoxicity test (GI50); format: cell-based; conditions: Homo sapiens, cancer, others, cervix, MTT 72 h
SCH = experiment: MTT cytotoxicity test (GI50); format: cell-based; conditions: Homo sapiens, cancer, gastric, MTT 72 h
NUGC3 = experiment: MTT cytotoxicity test (GI50); format: cell-based; conditions: Homo sapiens, NUGC-3; NUGC3, cancer, gastric; MTT 72 h
[2] = tested on: Ras-driven glioma initiating cells (GICs); experiment: Sphere formation assay; format: cell-based, murine; conditions: 5 μM, 7 days
Procedure: Murine glioma-initiating cells (GICs) were established and cultured as described previously (Saga, I. et al., Neuro. Oncol. 16: 1048-1056 (2014)). Briefly, Ink4a/Arf-null neural stem/progenitor cells were transduced with human H-RasV12 and DsRed and propagated in serum-free Dulbecco modified Eagle medium (DMEM)/F12 (Sigma-Aldrich) supplemented with recombinant epidermal growth factor (EGF; PeproTech) and basic fibroblast growth factor (PeproTech) at 20 ng/ml, heparan sulfate (Sigma-Aldrich) at 200 ng/ml and B27 supplement without vitamin A (Invitrogen, Carlsbad, Calif.). GICs were dissociated and plated in 96-well plates at a density of 100 cells/well. […] Three plates were prepared for each treatment group, and 30 wells were quantified per plate. Images were acquired on a BZ-X700 inverted fluorescence microscope (Keyence). Quantification was performed by Nikon NIS-element software (n=90).

WI38 = experiment: MTT cytotoxicity test (GI50); format: cell-based; conditions: Homo sapiens, WI-38; WI38, normal, lung; MTT 72 h
[3] = biological target: T3, MIP18 family protein FAM96A (Homo sapiens, UniProt Q9H5X1); experiment: MS-CETSA in normal BJ cell lysates; format: binding; conditions: lysate, 100 μM compound
T3 construct: After collecting data covering >8,000 proteins in lysates of normal BJ cells; endogenous in cells; host or cells: normal BJ cells, lysate
Procedure: as §1, §2, §3

IST1 = experiment: MTT cytotoxicity test (GI50); format: cell-based; conditions: Homo sapiens; IST1, cancer, gastric; MTT 72 h
[4] = biological target: T4, Isoform 3 of Cleavage and polyadenylation specificity factor subunit 7 (Homo sapiens, UniProt Q8N684); experiment: MS-CETSA in normal BJ cell lysates; format: binding; conditions: Uniprot Q8N684-3, lysate, 100 μM compound
T4 construct: After collecting data covering >8,000 proteins in lysates of normal BJ cells; endogenous in cells; host or cells: normal BJ cells, lysate
Procedure: as §1, §2, §3

AGS = experiment: MTT cytotoxicity test (GI50); format: cell-based; conditions: Homo sapiens, cancer, gastric, MTT 72 h
PI3K/Akt/mTOR pathway = experiment: Immunoblot of phosphorylated Akt and p70S6K; format: cell-based, human; conditions: normal versus transformed BJ cells, 24 h
Procedure: Total cell lysates were prepared with 1% triton lysis buffer [25 mM Tris HCl (pH 8.0), 150 mM NaCl, 1% triton-X100, 1 mM dithiothreitol (DTT), protease inhibitor mix (Complete Mini, Roche) and phosphatase inhibitor (PhosphoStop, Roche)] and subjected to SDS-PAGE. The following antibodies were used for immunoblotting: anti-β-actin (Sigma-Aldrich), anti-cleaved PARP (Abcam, #ab32064), anti-PI5P4Kα (#5527), anti-PI5P4Kβ (#9694), anti-cleaved caspase-3 (#9664), anti-pHistone H3(Ser10) (#3377), anti-pAkt(S473) (#9271), anti-pAkt(T308) (#13038), anti-total Akt (#9272), anti-p70S6K(T389) (#9234), anti-total p70S6K (#9202), anti-pErk (#4370), anti-γ-Histone H2AX (#9718) (Cell signaling) and anti-PIK3IP1 (Proteintech, #16826-1-AP). The secondary antibodies used were sheep anti-mouse IgG HRP and donkey anti-rabbit IgG HRP (Amersham; 1:2000 dilution). Immunoreactive proteins were visualized using ECL reagent (Amersham). Where indicated, intensities of protein bands were quantified by densitometry (Odyssey V3.0), normalized to their loading controls and then calculated as fold expression change relative to DMSO control.

[5] = biological target: T5, RNA-binding motif, single-stranded-interacting protein 1 (Homo sapiens, UniProt P29558); experiment: MS-CETSA in normal BJ cell lysates; conditions: Uniprot B4DN88, lysate, 100 μM compound
T5 construct: After collecting data covering >8,000 proteins in lysates of normal BJ cells; endogenous in cells; host or cells: normal BJ cells, lysate
Procedure: as §1, §2, §3

MDA-MB-231 = experiment: MTT cytotoxicity test (GI50); format: cell-based; conditions: Homo sapiens; MDA-MB-231, cancer, breast; MTT 72 h
human cancer cell lines = experiment: MTT cytotoxicity test, panel of human cancer cell lines; format: cell-based; conditions: mean over panel of human cancer cell lines; MTT 72 h
PIK3IP1 = experiment: qRT-PCR of PIK3IP1 mRNA in Ras- or Raf-mutant cancer cell lines; format: cell-based, human; conditions: 2.5 and 5 μM, 24 h; compared with normal cells
Procedure: […] human […] ID NO: 11, [NT] ID NO: 12), human […] ID NO: 13, [NT] ID NO: 14), human […] ID NO: 15, [NT] ID NO: 16) and human PIK3IP1 ([NT] ID NO: 17, [NT] ID NO: 18). The TATA-binding protein (TBP) gene was used for normalization. All PCR reactions were performed in triplicate.

DLD1 = experiment: MTT cytotoxicity test (GI50); format: cell-based; conditions: Homo sapiens, DLD-1; DLD1, cancer, colon; MTT 72 h

T2 sequence (Q86W92 whole entry): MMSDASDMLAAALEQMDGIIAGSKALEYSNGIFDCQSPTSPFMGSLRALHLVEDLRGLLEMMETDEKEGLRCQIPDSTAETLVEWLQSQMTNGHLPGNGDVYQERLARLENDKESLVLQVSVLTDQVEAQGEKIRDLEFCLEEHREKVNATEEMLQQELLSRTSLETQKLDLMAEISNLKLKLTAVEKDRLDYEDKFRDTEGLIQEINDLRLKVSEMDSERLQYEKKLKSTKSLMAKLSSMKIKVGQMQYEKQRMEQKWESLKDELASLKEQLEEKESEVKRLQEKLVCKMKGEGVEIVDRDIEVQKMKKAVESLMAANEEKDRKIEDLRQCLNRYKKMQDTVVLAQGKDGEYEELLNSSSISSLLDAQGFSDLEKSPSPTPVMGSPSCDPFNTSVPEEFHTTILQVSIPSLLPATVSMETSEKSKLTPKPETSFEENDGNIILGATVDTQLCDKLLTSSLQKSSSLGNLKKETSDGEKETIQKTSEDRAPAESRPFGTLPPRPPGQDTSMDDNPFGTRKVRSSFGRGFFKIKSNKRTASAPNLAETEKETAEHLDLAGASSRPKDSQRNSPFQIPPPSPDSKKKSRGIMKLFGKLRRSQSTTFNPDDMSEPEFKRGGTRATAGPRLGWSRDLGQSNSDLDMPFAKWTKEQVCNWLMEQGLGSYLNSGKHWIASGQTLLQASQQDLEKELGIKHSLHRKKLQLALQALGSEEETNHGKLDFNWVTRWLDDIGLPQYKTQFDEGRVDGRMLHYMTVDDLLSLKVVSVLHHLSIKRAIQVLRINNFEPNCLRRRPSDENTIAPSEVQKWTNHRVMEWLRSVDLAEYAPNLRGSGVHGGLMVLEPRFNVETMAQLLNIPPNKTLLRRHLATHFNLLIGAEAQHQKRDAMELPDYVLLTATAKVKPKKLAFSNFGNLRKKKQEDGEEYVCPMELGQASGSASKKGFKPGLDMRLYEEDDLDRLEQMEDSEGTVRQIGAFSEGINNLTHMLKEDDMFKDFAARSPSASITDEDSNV
T4 sequence (Q8N684 1-514 isoform Q8N684-3): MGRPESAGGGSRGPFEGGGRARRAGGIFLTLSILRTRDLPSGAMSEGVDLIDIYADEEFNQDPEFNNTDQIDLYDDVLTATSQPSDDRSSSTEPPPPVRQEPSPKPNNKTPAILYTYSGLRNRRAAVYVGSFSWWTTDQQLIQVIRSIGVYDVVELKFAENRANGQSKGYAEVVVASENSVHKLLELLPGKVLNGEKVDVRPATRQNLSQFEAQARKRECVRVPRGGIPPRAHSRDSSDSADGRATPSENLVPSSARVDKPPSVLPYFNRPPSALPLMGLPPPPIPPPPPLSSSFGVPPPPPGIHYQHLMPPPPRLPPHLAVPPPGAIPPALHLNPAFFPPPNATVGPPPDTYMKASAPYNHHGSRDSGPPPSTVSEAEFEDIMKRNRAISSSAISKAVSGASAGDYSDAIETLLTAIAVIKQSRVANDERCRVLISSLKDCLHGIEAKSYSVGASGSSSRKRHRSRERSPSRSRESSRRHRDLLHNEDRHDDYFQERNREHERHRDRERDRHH
T3 sequence (Q9H5X1 whole entry): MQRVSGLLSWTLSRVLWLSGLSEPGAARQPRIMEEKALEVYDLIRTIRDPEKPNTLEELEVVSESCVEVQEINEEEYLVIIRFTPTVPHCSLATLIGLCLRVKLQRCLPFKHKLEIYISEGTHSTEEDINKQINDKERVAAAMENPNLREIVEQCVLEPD
T1 sequence (P22830 55-429 isoform P22830-2 limits assumed): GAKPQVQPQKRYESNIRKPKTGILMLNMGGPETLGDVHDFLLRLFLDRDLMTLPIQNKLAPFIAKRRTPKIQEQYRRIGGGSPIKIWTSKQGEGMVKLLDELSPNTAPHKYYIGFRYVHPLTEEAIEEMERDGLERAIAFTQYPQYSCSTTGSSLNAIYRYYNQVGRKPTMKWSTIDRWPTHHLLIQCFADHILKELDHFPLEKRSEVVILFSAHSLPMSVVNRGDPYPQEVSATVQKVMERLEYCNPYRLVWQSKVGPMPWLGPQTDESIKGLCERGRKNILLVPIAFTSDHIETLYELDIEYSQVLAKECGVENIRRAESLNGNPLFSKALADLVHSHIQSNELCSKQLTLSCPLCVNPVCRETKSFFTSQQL
T5 sequence (P29558 whole entry): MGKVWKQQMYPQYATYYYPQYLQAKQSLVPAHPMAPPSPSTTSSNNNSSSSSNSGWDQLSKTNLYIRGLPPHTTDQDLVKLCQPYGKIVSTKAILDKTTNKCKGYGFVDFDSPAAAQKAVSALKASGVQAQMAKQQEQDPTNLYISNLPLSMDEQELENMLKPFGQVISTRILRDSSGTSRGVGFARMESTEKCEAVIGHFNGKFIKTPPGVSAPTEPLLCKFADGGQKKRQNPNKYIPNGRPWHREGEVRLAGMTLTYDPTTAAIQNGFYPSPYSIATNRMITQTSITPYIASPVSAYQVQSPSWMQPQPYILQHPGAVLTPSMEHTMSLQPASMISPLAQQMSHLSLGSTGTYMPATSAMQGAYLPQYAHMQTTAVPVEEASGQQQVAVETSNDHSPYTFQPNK

With N#C/C(=C\c1cccc2cnccc12)c1c[nH]c2ccccc12 [a131, (Z)-2-(1H-indol-3-yl)-3-(5-isoquinolyl)prop-2-enenitrile] the ED score [1] was 0.8366, the ΔTm at 100 µM ([1]; read-out: mean Delta Tm) was 3.81 °C and the GI50 (NCC59) was 0.9 µM. It also gave an ED score (Liprin-beta-1) of 0.3387, a ΔTm at 100 µM (Liprin-beta-1; read-out: mean Delta Tm) of 2.07 °C and a GI50 (HeLa) of 1.4 µM. For the same compound, the GI50 (SCH) was 1.7 µM, the GI50 (NUGC3) was 1 µM and the “growth of GICs in tumor spheroid culture” value [2] was “significantly suppressed growth”. It also gave a GI50 (WI38) of 3.4 µM, an ED score [3] of 0.291 and a ΔTm at 100 µM ([3]; read-out: mean Delta Tm) of 2.17 °C. For the same compound, the GI50 (IST1) was 2.2 µM, the ED score [4] was 0.3008 and the “mean Delta Tm” value ([4]; in °C (unit assumed)) was 1.653. The GI50 (AGS) was 1.1 µM, the “inhibition of the PI3K/Akt/mTOR pathway” value (PI3K/Akt/mTOR pathway) was “consistently caused inhibition of the PI3K/Akt/mTOR pathway only in normal BJ cells, but not in transformed counterparts” and the ED score [5] was 0.3144. It also gave a ΔTm at 100 µM ([5]; read-out: mean Delta Tm) of 2.01 °C, a GI50 (MDA-MB-231) of 1.1 µM and a GI50 (human cancer cell lines) of 1.7 µM. For the same compound, the “induction of PIK3IP1 in Ras- and Raf-mutant cancer cells” value (PIK3IP1) was “significantly attenuated” and the GI50 (DLD1) was 1.2 µM.
